Key:
Format in all cases: cell-based
[1] = system: A. baumannii NCTC 13420; assay: Antibacterial assay, MIC/MBC by broth microdilution (CLSI); details: A. baumannii NCTC 13420; for MIC: repeated twice, a/b = both values
In short: (§1)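 CLSI broth microdilution in cation-adjusted Mueller Hinton broth, log-phase inoculum diluted to 7.5×10^5 CFU/mL before 1:1 mixing with two-fold compound dilutions, triplicates, 18 h at 37 °C static. MIC: >90% inhibition by OD600; MBC: lowest concentration giving no colonies after 5 μL spotted on agar, 18 h, 37 °C.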

[2] = system: E. cloacae NCTC 13405; assay: as above; details: E. cloacae NCTC 13405; for MIC: repeated twice, a/b = both values
In short: as §1

[3] = system: E. coli ATCC 25922; assay: as above; details: for MIC: repeated twice, a/b = both values
In short: as §1

[4] = system: E. faecalis ATCC 700221; assay: as above; details: for MIC: repeated twice, a/b = both values
In short: as §1

[5] = system: K. pneumoniae ATCC 700603; assay: as above; details: K. pneumoniae ATCC 700603; repeated twice, a/b = both values
In short: as §1

[6] = system: P. aeruginosa NCTC 13437; assay: as above; details: P. aeruginosa NCTC 13437; for MIC: repeated twice, a/b = both values
In short: as §1

[7] = system: S. aureus JE2 (USA300); assay: as above; details: S. aureus JE2 (USA300); for MIC: repeated twice, a/b = both values
In short: as §1

[8] = system: A549 cells; assay: Cytotoxicity assay (resazurin); details: 20 h, mean±S.E.M. from two independent experiments
Description: Sample preparation. The compounds were dissolved in DMSO at 12.8 mg/mL as the stock solutions, except for compounds 9-17, which were directly dissolved in the culture medium at 12.8 mg/mL. The stock solutions were diluted by the culture medium to the testing concentration at 128 μg/mL (compound 9-17 were diluted to 1,280 μg/mL). The solutions were then serially diluted two fold in a 96-well plate and were used in the cytotoxicity assay immediately.
Cell culture and cytotoxicity assay. A549 cells (ATCC CCL-185) were cultured in high glucose DMEM (Sigma-Aldrich, D6429) supplemented with 10% FBS, 1% penicillin-streptomycin solution (Sigma-Aldrich, P4333), 1% gentamicin solution (Sigma-Aldrich, G1272) and 1% amphotericin B solution (Sigma-Aldrich, A2942) at 37° C. in a humidified atmosphere containing 5% CO2. After cells reached 80%˜90% confluency, they were detached and counted using an Invitrogen Countess automated cell counter. Cells with viability over 90% were seeded at a density of 5×10^3 cells per well in 96-well cell culture plates. After overnight culture, the culture medium in each well removed with a pipet. 80 μL of the compound solutions from each well of the 96-well plate prepared above were transferred to this 96-well plate containing the cells, and the plates were incubated for 20 h. After addition of 8 μL of 110 μg/mL resazurin, the plates were incubated for further 3 h at 37° C. in 5% CO2. The fluorescence intensity was measured using a Tecan M200 Infinite Pro microplate reader at excitation 560 nm, emission 590 nm. IC50 were calculated by curve fitting the inhibition values vs. log(concentration) using GraphPad's Prism. The cytotoxicity assays (in triplicate) were repeated twice using freshly prepared cells and compound solutions.

[9] = system: C. albicans ATCC 90028; assay: Antifungal MIC
[10] = system: C. neoformans ATCC 208821; assay: Antifungal MIC; details: C. neoformans ATCC 208821

MIC [1]	MIC [2]	MIC [3]	MIC [4]	MIC [5]	MIC [6]	MIC [7]	MIC [9]	MIC [10]	Structure (SMILES)	MBC (in brackets) [1]	MBC (in brackets) [3]	MBC (in brackets) [4]	MBC (in brackets) [7]	IC50 against A549 cells [8]	MBC (in brackets) [2]	MBC (in brackets) [6]
82 μM/mL	>328 μM/mL	21 (21) μM/mL	0.08 μM/mL	>328 μM/mL	>328 μM/mL	0.01 μM/mL	>32 µg/mL	>32 µg/mL	CC[P+](CC)(CC)[Au-][S][C@@H]1O[C@H](COC(C)=O)[C@@H](OC(C)=O)[C@H](OC(C)=O)[C@H]1NC(=O)C(Cl)(Cl)Cl [Compound 4, (3,4,6-Tri-O-acetyl-2-N-trichloroactyl-1-thio-β-D-glucopyranosato) (triethylphosphine) gold (I)]	164 μM/mL	21 (21) μM/mL	(0.2) μM/mL	(0.01) μM/mL	7.9 ± 0.1 µg/mL		
66 μM/mL	265 (265) μM/mL	33 (33) μM/mL	0.1 μM/mL	>265 μM/mL	132 (132) μM/mL	0.03 μM/mL	>32 µg/mL	>32 µg/mL	CC[P+](CC)(CC)[Au-][S][C@@H]1O[C@H](COC(C)=O)[C@@H](O[C@@H]2O[C@H](COC(C)=O)[C@H](OC(C)=O)[C@H](OC(C)=O)[C@H]2OC(C)=O)[C@H](OC(C)=O)[C@H]1OC(C)=O [Compound 6, [2,3,4,6-Tetra-O-acetyl-β-D-galactopyranosyl (1→4)-2,3,6-tri-O-acetyl-1-thio-β-D-glucopyranosato](triethylphosphine) gold(I)]	132 μM/mL	33 (33) μM/mL	0.3 μM/mL	(0.1) μM/mL	29.8 ± 3.2 µg/mL	265 (265) μM/mL	132 (132) μM/mL

Source: patent US20210198284A1, “GOLD COMPOSITIONS AND METHODS OF USE THEREOF” (THE UNIVERSITY OF MASSACHUSETTS, priority 2018, published 2021)
